pIC50: −log10 of the molar value. Where two headings read alike, the source gives them in different places. Each block holds one compound with its values, some of them ahead of it. *1 amine or outer side, *2 acyl side, *3 side chain or, on linkers, in order; H or OH if unused. Where a SMILES comes first, the peptide text is derived from it. [ ]: non-standard residue; d: D form. The star is where a group is joined. Sta = CC(C)C[C@H](N)[C@@H](O)CC(=O)O; Isovaleryl = CC(C)CC(=O)*; CO = O=C([*:1])[*:2]
Test system: atrial peptide-degrading enzyme (ADE)
Assay: Inhibition of ADE activity (AcAPI production from 50 μM AcAPII, HPLC)
Type: biochemical, bovine
Experimental: The concentration of enzyme and AcAPII were chosen so that approximately 80% of the AcAPII was degraded in the absence of inhibitor. The production of AcAPI was determined by integration of the AcI peak, and percent inhibition by the inhibitors was calculated.
(e.) Enzyme Inhibitor Testing: To further characterize ADE, the extent of inhibition by several known peptidase inhibitors was determined.

[1] = inhibitor 0.1 mM, 50 μM AcAPII, 1 hour, 37° C.
[2] = inhibitor 1 mM, 50 μM AcAPII, 1 hour, 37° C.
[3] = inhibitor 5 mM, 50 μM AcAPII, 1 hour, 37° C.

Percent Inhibition of ADE [1]: 0%
SMILES: CC(C)C[C@H](NC(=O)[C@H]1O[C@@H]1C(=O)O)C(=O)NCCCCN=C(N)N (relative stereo) [E64, trans-Epoxysuccinyl-L-leucylamido-(4-guanidino)butane]

Percent Inhibition of ADE [2]: 72%
SMILES: c1cnc2c(c1)ccc1cccnc12 [1,10-Phenanthroline]
Inhibition of ADE, in words: inhibited activity to a slightly lesser extent

% Inhibition At 0.1 mM (Table 10): 46%
SMILES: CC(C)C[C@H](NC(=O)[C@@H](N)CO)C(=O)N[C@@H](CCCNC(=N)N)C(=O)N[C@@H](CCCNC(=N)N)C(=O)N[C@@H](CO)C(=O)N[C@@H](CO)C(=O)N[C@H](C)C(=O)NCC(=O)N[C@H](C)C(=O)N[C@@H](CC(N)=O)C(=O)N[C@@H](CO)C(=O)N[C@@H](Cc1ccccc1)C(=O)N[C@@H](CCCNC(=N)N)C(=O)N[C@@H](Cc1ccc(O)cc1)C(N)=O [(I), Ser-Leu-Arg-Arg-Ser-Ser-DAla-Gly-DAla-Asn-Ser-Phe-Arg-Tyr-NH2] (H-SLRRSS[dA]G[dA]NSFRY-NH2)

% Inhibition At 0.1 mM (Table 10): 28%
SMILES: CC(C)C[C@H](NC(=O)[C@@H](N)CO)C(=O)N[C@@H](CCCNC(=N)N)C(=O)N[C@@H](CCCNC(=N)N)C(=O)N[C@@H](CO)C(=O)N[C@@H](CO)C(=O)N[C@H](C)C(=O)NCC(=O)N[C@H](C)C(=O)N[C@@H](CC(N)=O)C(=O)N[C@@H](CO)C(=O)N[C@H](Cc1ccccc1)C(=O)N[C@@H](CCCNC(=N)N)C(=O)N[C@@H](Cc1ccc(O)cc1)C(N)=O [(II), Ser-Leu-Arg-Arg-Ser-Ser-DAla-Gly-DAla-Asn-Ser-DPhe-Arg-Tyr-NH2] (H-SLRRSS[dA]G[dA]NS[dF]RY-NH2)

% Inhibition At 0.1 mM (Table 10): 22%
SMILES: CC(C)C[C@H](NC(=O)[C@@H](N)CO)C(=O)N[C@@H](CCCNC(=N)N)C(=O)N[C@@H](CCCNC(=N)N)C(=O)N[C@@H](CO)C(=O)N[C@@H](CO)C(=O)N[C@H](C)C(=O)NCC(=O)N[C@H](C)C(=O)N[C@@H](CC(N)=O)C(=O)N[C@H](CO)C(=O)N[C@@H](Cc1ccccc1)C(=O)N[C@@H](CCCNC(=N)N)C(=O)N[C@@H](Cc1ccc(O)cc1)C(N)=O [(III), Ser-Leu-Arg-Arg-Ser-Ser-DAla-Gly-DAla-Asn-DSer-Phe-Arg-Tyr-NH2] (H-SLRRSS[dA]G[dA]N[dS]FRY-NH2)

pIC50 (Table 10): 4.49 | % Inhibition At 0.1 mM (Table 10): 68%
SMILES: CC(C)C[C@H](NC(=O)[C@@H](N)CO)C(=O)N[C@@H](CCCNC(=N)N)C(=O)N[C@@H](CCCNC(=N)N)C(=O)N[C@@H](CO)C(=O)N[C@@H](CO)C(=O)N[C@H](C)C(=O)NCC(=O)N[C@H](C)C(=O)N[C@@H](CC(N)=O)C(=O)N[C@@H](CS)C(=O)N[C@@H](Cc1ccccc1)C(=O)N[C@@H](CCCNC(=N)N)C(=O)N[C@@H](Cc1ccc(O)cc1)C(N)=O [(IV), Ser-Leu-Arg-Arg-Ser-Ser-DAla-Gly-DAla-Asn-Cys-Phe-Arg-Tyr-NH2] (H-SLRRSS[dA]G[dA]NCFRY-NH2)

% Inhibition At 0.1 mM (Table 10): 74%
SMILES: CC(C)C[C@H](NC(=O)[C@@H](N)CO)C(=O)N[C@@H](CCCNC(=N)N)C(=O)N[C@@H](CCCNC(=N)N)C(=O)N[C@@H](CO)C(=O)N[C@@H](CO)C(=O)N[C@H](C)C(=O)NCC(=O)N[C@H](C)C(=O)N[C@@H](CC(N)=O)C(=O)N[C@@H](CS)C(=O)N[C@H](Cc1ccccc1)C(=O)N[C@@H](CCCNC(=N)N)C(N)=O [(VI), Ser-Leu-Arg-Arg-Ser-Ser-DAla-Gly-DAla-Asn-Cys-DPhe-Arg-NH2] (H-SLRRSS[dA]G[dA]NC[dF]R-NH2)

SMILES: CC(C)[C@H](NC(=O)[C@H](CCCNC(=N)N)NC(=O)N[C@@H](Cc1ccccc1)C(=O)O)C(=O)N[C@H](C=O)CCCNC(=N)N [Antipain] ({Phe-CO}-Arg-Val-Arg-aldehyde)
Percent Inhibition of ADE [1]: 0%

Inhibition of ADE, in words: slight inhibition | Percent Inhibition of ADE (inhibitor 0.2 mM, 50 μM AcAPII, 1 hour, 37° C.): 33%
SMILES: C[C@H](CS)C(=O)N1CCC[C@H]1C(=O)O [Captopril]

SMILES: CC(C)C[C@H](NC(=O)[C@@H](NC(=O)N[C@@H](Cc1ccccc1)C(=O)O)[C@@H]1CCN=C(N)N1)C(=O)N[C@H](C=O)Cc1ccccc1 [Chymostatin]
Percent Inhibition of ADE [1]: 8%

ADE activity after dialysis of the enzyme (enzyme dialyzed against 1 mM EDTA): totally abolished | Percent Inhibition of ADE [3]: 20%
SMILES: O=C(O)CN(CCN(CC(=O)O)CC(=O)O)CC(=O)O [EDTA, Ethylenediamine tetraacetic acid]

Percent Inhibition of ADE [1]: 10%
SMILES: CC(C)C[C@H](NC(=O)N[C@H](C(=O)N[C@@H](CCC(N)=O)C(=O)N[C@@H](C)C=O)[C@@H]1CCNC(=N)N1)C(=O)O [Elastinal]

SMILES: O=S(=O)(O)c1cc[c]([Hg][OH])cc1 [Hydroxymercuriphenyl sulfonic acid]
Percent Inhibition of ADE [2]: 100%

SMILES: NC(=O)CI [Iodoacetamide]
Percent Inhibition of ADE [2]: 10%

SMILES: O=C(O)CI [Iodoacetic acid]
Percent Inhibition of ADE: 0

SMILES: CC(=O)N[C@@H](CC(C)C)C(=O)N[C@@H](CC(C)C)C(=O)N[C@H](C=O)CCCNC(=N)N [Leupeptine]
Inhibition of ADE, in words: slight inhibition | Percent Inhibition of ADE [1]: 33%

Inhibition of ADE, in words: inhibited | Percent Inhibition of ADE [3]: 97% | ADE activity inhibited by (text summary of Table 4): ~100%
SMILES: CCN1C(=O)C=CC1=O [NEM, N-ethylmaleimide]

SMILES: O=S(=O)(F)Cc1ccccc1 [PMSF, Phenylmethylsulfonyl fluoride]
Percent Inhibition of ADE [2]: 8%

Percent Inhibition of ADE (inhibitor 0.01 mM, 50 μM AcAPII, 1 hour, 37° C.): 0%
SMILES: CC(C)CC(=O)N[C@H](C(=O)N[C@H](C(=O)N[C@@H](CC(C)C)[C@@H](O)CC(=O)N[C@@H](C)C(=O)N[C@@H](CC(C)C)[C@@H](O)CC(=O)O)C(C)C)C(C)C [Pepstatin] (Isovaleryl-VV[Sta]A[Sta]-OH)

Inhibition of ADE, in words: not inhibited | Percent Inhibition of ADE (inhibitor 0.001 mM, 50 μM AcAPII, 1 hour, 37° C.): 0%
SMILES: CC(C)C[C@H](NP(=O)(O)O[C@@H]1O[C@@H](C)[C@H](O)[C@@H](O)[C@H]1O)C(=O)N[C@@H](Cc1c[nH]c2ccccc12)C(=O)O [Phosphoramidon]

SMILES: O=C(O)c1cc[c]([Hg][Cl])cc1 [p-Chloromercuribenzoate]
Percent Inhibition of ADE [2]: 95%

Source: patent US5262521A (SRI International, priority 1991, dated 1993)
